Key:
[1] = Antiproliferative activity against HEK293 cells assessed as cell viability at 10^-4 M after 6 hrs by MTT assay relative to control; type: cell-based; conditions: human, read-out: Activity
MCF7 = assay: Antiproliferative activity against human MCF7 cells assessed as cell viability at 10^-4 M after 6 hrs by MTT assay relative to control; type: functional; conditions: MCF7, 6 h, read-out: Activity
Aromatase = biological target: T1, Aromatase (Homo sapiens, UniProt P11511)
T1 sequence (P11511 whole entry): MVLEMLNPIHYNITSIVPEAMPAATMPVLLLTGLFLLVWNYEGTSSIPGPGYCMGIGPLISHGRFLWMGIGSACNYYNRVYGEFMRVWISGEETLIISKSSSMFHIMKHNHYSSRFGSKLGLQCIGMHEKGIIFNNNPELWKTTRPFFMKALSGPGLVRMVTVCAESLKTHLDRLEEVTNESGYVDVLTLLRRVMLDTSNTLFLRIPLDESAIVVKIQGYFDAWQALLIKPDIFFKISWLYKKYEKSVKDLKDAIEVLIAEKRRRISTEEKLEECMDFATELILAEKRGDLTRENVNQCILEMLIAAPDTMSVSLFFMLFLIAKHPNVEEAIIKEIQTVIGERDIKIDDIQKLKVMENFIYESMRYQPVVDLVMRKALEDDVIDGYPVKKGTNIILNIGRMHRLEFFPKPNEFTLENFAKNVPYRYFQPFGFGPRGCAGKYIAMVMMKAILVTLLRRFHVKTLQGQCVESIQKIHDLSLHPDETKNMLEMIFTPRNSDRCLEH
Description: Inhibition of aromatase (unknown origin)

| IC50 (Aromatase) [nM] | SMILES | viability at 6 h, 100 µM [1] [%] | viability at 100 µM (MCF7) [%] |
| --- | --- | --- | --- |
|  | c1cnc(-c2nc(-c3cc4ccccc4o3)cs2)nc1 | 108 | 131 |
|  | c1cnc(-c2nc(-c3ccncc3)cs2)nc1 | 101 | 76.6 |
|  | Clc1ccccc1-c1csc(-c2ncccn2)n1 | 89.4 | 125 |
|  | c1cnc(-c2nc(-c3cccs3)cs2)nc1 | 77 | 136 |
|  | Cc1ccc(O)c(-c2csc(-c3ncccn3)n2)c1 | 91.8 | 195 |
|  | COc1ccc(O)c(-c2csc(-c3ncccn3)n2)c1 | 81.3 | 208 |
|  | Oc1ccc(-c2csc(-c3ncccn3)n2)cc1 | 94 | 227 |
|  | c1cnc(-c2nc(-c3cc4ccccc4s3)cs2)nc1 | 83.5 | 120 |
|  | c1ccc(-c2csc(-c3ncccn3)n2)nc1 | 101 | 74.2 |
|  | Oc1ccc(Cl)cc1-c1csc(-c2ncccn2)n1 | 78 | 162 |
|  | COc1ccccc1-c1csc(-c2ncccn2)n1 | 87 | 130 |
|  | c1cnc(-c2nc(-c3nc4ccccc4s3)cs2)nc1 | 117 | 60.7 |
|  | Cn1c(-c2csc(-c3ncccn3)n2)nc2ccccc21 | 102 | 128 |
|  | Clc1cccc(-c2csc(-c3ncccn3)n2)c1 | 107 | 86.9 |
|  | Oc1ccccc1-c1csc(-c2ncccn2)n1 | 131 | 129 |
|  | c1cnc(-c2nc(-c3cccnc3)cs2)nc1 | 89 | 75.5 |
|  | Clc1ccc(-c2csc(-c3ncccn3)n2)cc1 | 101 | 146 |
| 240 | c1cncc(-c2nsc(-c3cccnc3)n2)c1 |  |  |
| 4 | c1cncc(-c2csc(-c3cccnc3)n2)c1 |  |  |
|  | c1cnc(-c2nc(-c3ccco3)cs2)nc1 | 59 | 76 |
|  | COc1ccc(-c2csc(-c3ncccn3)n2)cc1 | 101 | 127 |
|  | Oc1cccc(-c2csc(-c3ncccn3)n2)c1 | 113 | 112 |
|  | COc1cccc(-c2csc(-c3ncccn3)n2)c1 | 95 | 137 |
| > 50000 | c1ccc(-c2nsc(-c3ccccc3)n2)cc1 |  |  |

Source: ChEMBL document CHEMBL4219133, “Studies on non-steroidal inhibitors of aromatase enzyme; 4-(aryl/heteroaryl)-2-(pyrimidin-2-yl)thiazole derivatives” (Bioorg Med Chem, 2018)
